In ChEMBL document CHEMBL1124138, “Synthesis and analgesic activity of pemedolac (cis-1-ethyl-1,3,4,9-tetrahydro-4-(phenylmethyl)pyrano[3,4-b]ind ole-1- acetic acid)” (1988):

Legend:
Type in all cases: functional
Rattus norvegicus [1] = species: Rattus norvegicus; experiment: Dose at which 50% of the rats had a positive gastrointestinal irritation / ulceration on a quantal all-or-none basis.
Rattus norvegicus [2] = species: Rattus norvegicus; experiment: Dose causing an analgesic effect in 50% of rats (Randall-Selitto assay)
Mus musculus [3] = species: Mus musculus; experiment: Dose causing 50% inhibition of writhing in mouse (PBQ writhing test)
[4] = Ratio of carrageenan paw edema ED50/Randall-Sellitto ED50
Rattus norvegicus [5] = experiment: Dose causing 50% inhibition of edema by carrageenan paw edema assay.
[6] = Ratio of acute ulcerogenesis UD50/Randall-Selitto ED50
Mus musculus [7] = experiment: Percentage inhibition of writhing in mouse at 25 mg/kg (PBQ writhing test)
Mus musculus [8] = experiment: Percentage inhibition of writhing in mouse at 30 mg/kg (PBQ writhing test)
Rattus norvegicus [9] = experiment: Percentage analgesic effect of rats at 10 mg/kg (Randall-Selitto assay)
Rattus norvegicus [10] = species: Rattus norvegicus; experiment: Dose at which 50% of the rats had a positive gastrointestinal irritation / ulceration on a quantal all-or-none basis
Rattus norvegicus [11] = experiment: Dose causing 50% inhibition of edema by carrageenan paw edema assay
[12] = Rattus norvegicus, read-out: ED50

| Compound | ED50 (Rattus norvegicus [2]; [12]) | ED50 (Mus musculus [3]; Mus musculus, read-out: ED50) | Ratio [4] | Safety index [6] | other results |
| --- | --- | --- | --- | --- | --- |
| CN1C(C(=O)Nc2ccccn2)=C(O)c2ccccc2S1(=O)=O [PIROXICAM] | 0.35 mg/kg | 3.4 mg/kg | 3.7 | 17 | UD50 (Rattus norvegicus [1]): 6 mg/kg; ED50 (Rattus norvegicus [5]): 1.3 mg/kg |
| CC(C)Cc1ccc(C(C)C(=O)O)cc1 (stereo not drawn) [IBUPROFEN] | 64.5 mg/kg | 32.4 mg/kg | 0.3 | 2.3 | UD50 (Rattus norvegicus [1]): 150 mg/kg; ED50 (Rattus norvegicus [5]): 21 mg/kg |
| CC[C@@]1(CC(=O)O)OC[C@@H](Cc2ccccc2)c2c1[nH]c1ccccc21 |  |  |  |  | inhibition in vivo at 25 mg/kg (Mus musculus [7]): 19% |
| CCC1(CC(=O)O)OCC(Cc2ccccc2)c2c1[nH]c1ccccc21 (single isomer, unassigned; (+)) [PEMEDOLAC] |  |  |  |  | ED50 (Rattus norvegicus [2]): 0.04 mg/kg; ED50 (Mus musculus [3]): 1.8 mg/kg |
| CCC1(CC(=O)O)OCC(Cc2ccccc2)c2c1[nH]c1ccccc21 (single isomer, unassigned; (-)) [PEMEDOLAC] |  |  |  |  | inhibition in vivo at 30 mg/kg (Mus musculus [8]): 15%; Effect (Rattus norvegicus [9]): 40% |
| CCC1(CC(=O)O)OCC(Cc2ccccc2)c2c1[nH]c1ccccc21 (stereo in doubt) |  |  | 33000 | > 35000 |  |
| CCC1(CC(=O)O)OCC(Cc2ccccc2)c2c1[nH]c1ccccc21 (stereo in doubt) [PEMEDOLAC] |  | 2 mg/kg |  |  | ED50 (Rattus norvegicus [2]): 0.003 mg/kg; UD50 (Rattus norvegicus [10]): 107 mg/kg; ED50 (Rattus norvegicus [11]): ~100 mg/kg |
| CCc1cccc2c3c([nH]c12)C(CC)(CC(=O)O)OCC3 (stereo not drawn) [ETODOLAC] | 4.5 mg/kg |  | 5.1 | 13 | UD50 (Rattus norvegicus [10]): 58 mg/kg; ED50 (Rattus norvegicus [11]): 23 mg/kg |
